ChEMBL document CHEMBL1126369, “(E)-1-alkyl-[2-(1H-azol-2-yl)vinyl]pyridinium salts: theoretical analysis, synthesis and evaluation of their interaction with choline acetyltransferase” (Bioorg Med Chem Lett, 1992)

Assays:
[1] = biological target: T1, Choline O-acetyltransferase (Gallus gallus) (UniProt Q90YJ9); test: Inhibition of chick optic lobe choline acetyltransferase (ChAT) at 10e-4 M
T1 sequence (whole entry): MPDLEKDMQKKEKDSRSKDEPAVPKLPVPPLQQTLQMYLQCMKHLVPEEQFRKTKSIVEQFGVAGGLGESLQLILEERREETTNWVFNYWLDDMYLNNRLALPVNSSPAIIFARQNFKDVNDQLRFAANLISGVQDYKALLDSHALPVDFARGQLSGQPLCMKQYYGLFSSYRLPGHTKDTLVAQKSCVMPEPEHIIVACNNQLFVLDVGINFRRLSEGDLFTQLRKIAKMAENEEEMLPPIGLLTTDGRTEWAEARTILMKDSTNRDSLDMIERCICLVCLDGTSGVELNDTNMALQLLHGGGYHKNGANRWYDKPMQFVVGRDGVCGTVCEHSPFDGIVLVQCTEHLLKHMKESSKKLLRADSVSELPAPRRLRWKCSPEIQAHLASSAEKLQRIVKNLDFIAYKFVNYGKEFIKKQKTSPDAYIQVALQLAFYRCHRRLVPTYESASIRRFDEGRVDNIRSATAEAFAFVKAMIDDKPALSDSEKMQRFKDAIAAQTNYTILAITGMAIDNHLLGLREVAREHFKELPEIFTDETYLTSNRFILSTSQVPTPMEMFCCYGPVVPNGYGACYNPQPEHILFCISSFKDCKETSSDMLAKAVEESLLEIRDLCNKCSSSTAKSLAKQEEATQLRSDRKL

[2] = biological target: T2, Choline O-acetyltransferase (Gallus gallus, UniProt Q90YJ9); test: Compound was tested in vitro for inhibitory activity against chick optic lobe choline acetyltransferase (ChAT)
T2 sequence (Q90YJ9 whole entry): T1 sequence (whole entry)

[3] = biological target: T3, Choline O-acetyltransferase (Rattus norvegicus, UniProt P32738); test: Compound was tested in vitro for inhibitory activity against rat choline acetyltransferase (ChAT)
T3 sequence (P32738 whole entry): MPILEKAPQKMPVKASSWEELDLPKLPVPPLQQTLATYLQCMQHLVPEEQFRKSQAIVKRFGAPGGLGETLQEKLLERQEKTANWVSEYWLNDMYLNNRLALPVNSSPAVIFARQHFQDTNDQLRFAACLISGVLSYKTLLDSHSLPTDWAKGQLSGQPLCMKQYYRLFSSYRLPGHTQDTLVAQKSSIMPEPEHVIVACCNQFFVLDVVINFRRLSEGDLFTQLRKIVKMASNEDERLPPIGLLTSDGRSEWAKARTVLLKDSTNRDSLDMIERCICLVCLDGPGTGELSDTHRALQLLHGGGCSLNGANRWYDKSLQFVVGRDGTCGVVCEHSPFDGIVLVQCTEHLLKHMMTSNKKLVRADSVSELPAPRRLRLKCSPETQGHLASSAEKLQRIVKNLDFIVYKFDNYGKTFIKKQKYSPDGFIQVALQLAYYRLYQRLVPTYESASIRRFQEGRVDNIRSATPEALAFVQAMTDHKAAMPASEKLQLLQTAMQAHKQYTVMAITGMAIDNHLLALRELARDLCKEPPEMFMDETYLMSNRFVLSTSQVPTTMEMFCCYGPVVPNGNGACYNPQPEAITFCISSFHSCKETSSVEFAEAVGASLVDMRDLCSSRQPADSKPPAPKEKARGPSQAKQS

[4] = biological target: T2, Choline O-acetyltransferase; test: Compound was tested in vitro for inhibitory activity against chick choline acetyltransferase (ChAT)

`Cc1cc2nc(/C=C/c3ccncc3)[nH]c2cc1C` gave an inhibition [1] of under 1%.
For `Cc1cc2nc(/C=C/c3cccnc3)[nH]c2cc1C`, the inhibition [1] was under 1%.
In the case of `Cc1cc2nc(/C=C/c3ccc[n+](C)c3)[nH]c2cc1C`, the inhibition [1] is reported as under 1%.
Compound `CCCCCCCCCC[n+]1ccc(/C=C/c2nc3cc(C)c(C)cc3[nH]2)cc1` has an inhibition [1] of under 1%.
`CCCC[n+]1ccc(/C=C/c2ncc[nH]2)cc1` was tested, and the inhibition [1] was under 1%.
`CCCC[n+]1cccc(/C=C/c2nc3cc(C)c(C)cc3[nH]2)c1` gave an inhibition [1] of under 1%.
`CCC[n+]1ccc(/C=C/c2cccc3ccccc23)cc1` gave an IC50 [2] of 29 µM, an IC50 [3] of 30 µM and an IC50 [4] of 58 µM. The inhibition [1] was 80%.
With `C(=C\c1cccc2ccccc12)/c1ccncc1` the inhibition [1] was 5%.
Compound `NC(=O)C[n+]1ccc(/C=C/c2cccc3ccccc23)cc1` has an IC50 [2] of 37 µM and an inhibition [1] of 78%.
`C[n+]1ccc(/C=C/c2cccc3ccccc23)cc1` showed an IC50 [2] of 40 µM and an inhibition [1] of 73%.
`C[n+]1ccc(/C=N/c2nc3ccccc3[nH]2)cc1` showed an inhibition [1] of under 1%.
With `CCCC[n+]1ccc(/C=C/c2nc3cc(C)c(C)cc3[nH]2)cc1` the inhibition [1] was under 1%.
For `Cc1cc2nc(/C=C/c3cc[n+](C)cc3)[nH]c2cc1C`, the inhibition [1] was under 1%.
